# From article PMC7655540, “Accumulation of Target Gene Mutations Confers Multiple Resistance to ALS, ACCase, and EPSPS Inhibitors in Lolium Species in Chile” (Frontiers in Plant Science, 2020)
# Where two headings read alike, the source gives them in different places.
# How the values were obtained:
# [1] = target: T1, ACCase (Lolium perenne, UniProt Z9B5O7SYH2); assay: ATP-dependent incorporation of […]-bicarbonate into malonyl-CoA; type: biochemical; conditions: R population extract, heterogeneous alleles; 5 mM acetyl-CoA, pH 8.3, 34°C; stated gain; read-out: I50
# T1 construct: native enzyme, young leaf extract, ammonium sulfate fraction, desalted; isoforms not separated
# [2] = target: T1, ACCase; assay: as above; type: biochemical; conditions: S population; partially purified leaf extract; 5 mM acetyl-CoA, pH 8.3, 34°C; diclofop-acid per methods; read-out: I50
# [3] = target: T2, ACCase (Lolium multiflorum, UniProt A0AAD8WR50); assay: as above; type: biochemical; conditions: S population; partially purified leaf extract; 5 mM acetyl-CoA, pH 8.3, 34°C; diclofop-acid per methods; read-out: I50
# T2 construct: gene QYE76_038327; native enzyme, young leaf extract, ammonium sulfate fraction, desalted; isoforms not separated
# T2 sequence (A0AAD8WR50 1-2320): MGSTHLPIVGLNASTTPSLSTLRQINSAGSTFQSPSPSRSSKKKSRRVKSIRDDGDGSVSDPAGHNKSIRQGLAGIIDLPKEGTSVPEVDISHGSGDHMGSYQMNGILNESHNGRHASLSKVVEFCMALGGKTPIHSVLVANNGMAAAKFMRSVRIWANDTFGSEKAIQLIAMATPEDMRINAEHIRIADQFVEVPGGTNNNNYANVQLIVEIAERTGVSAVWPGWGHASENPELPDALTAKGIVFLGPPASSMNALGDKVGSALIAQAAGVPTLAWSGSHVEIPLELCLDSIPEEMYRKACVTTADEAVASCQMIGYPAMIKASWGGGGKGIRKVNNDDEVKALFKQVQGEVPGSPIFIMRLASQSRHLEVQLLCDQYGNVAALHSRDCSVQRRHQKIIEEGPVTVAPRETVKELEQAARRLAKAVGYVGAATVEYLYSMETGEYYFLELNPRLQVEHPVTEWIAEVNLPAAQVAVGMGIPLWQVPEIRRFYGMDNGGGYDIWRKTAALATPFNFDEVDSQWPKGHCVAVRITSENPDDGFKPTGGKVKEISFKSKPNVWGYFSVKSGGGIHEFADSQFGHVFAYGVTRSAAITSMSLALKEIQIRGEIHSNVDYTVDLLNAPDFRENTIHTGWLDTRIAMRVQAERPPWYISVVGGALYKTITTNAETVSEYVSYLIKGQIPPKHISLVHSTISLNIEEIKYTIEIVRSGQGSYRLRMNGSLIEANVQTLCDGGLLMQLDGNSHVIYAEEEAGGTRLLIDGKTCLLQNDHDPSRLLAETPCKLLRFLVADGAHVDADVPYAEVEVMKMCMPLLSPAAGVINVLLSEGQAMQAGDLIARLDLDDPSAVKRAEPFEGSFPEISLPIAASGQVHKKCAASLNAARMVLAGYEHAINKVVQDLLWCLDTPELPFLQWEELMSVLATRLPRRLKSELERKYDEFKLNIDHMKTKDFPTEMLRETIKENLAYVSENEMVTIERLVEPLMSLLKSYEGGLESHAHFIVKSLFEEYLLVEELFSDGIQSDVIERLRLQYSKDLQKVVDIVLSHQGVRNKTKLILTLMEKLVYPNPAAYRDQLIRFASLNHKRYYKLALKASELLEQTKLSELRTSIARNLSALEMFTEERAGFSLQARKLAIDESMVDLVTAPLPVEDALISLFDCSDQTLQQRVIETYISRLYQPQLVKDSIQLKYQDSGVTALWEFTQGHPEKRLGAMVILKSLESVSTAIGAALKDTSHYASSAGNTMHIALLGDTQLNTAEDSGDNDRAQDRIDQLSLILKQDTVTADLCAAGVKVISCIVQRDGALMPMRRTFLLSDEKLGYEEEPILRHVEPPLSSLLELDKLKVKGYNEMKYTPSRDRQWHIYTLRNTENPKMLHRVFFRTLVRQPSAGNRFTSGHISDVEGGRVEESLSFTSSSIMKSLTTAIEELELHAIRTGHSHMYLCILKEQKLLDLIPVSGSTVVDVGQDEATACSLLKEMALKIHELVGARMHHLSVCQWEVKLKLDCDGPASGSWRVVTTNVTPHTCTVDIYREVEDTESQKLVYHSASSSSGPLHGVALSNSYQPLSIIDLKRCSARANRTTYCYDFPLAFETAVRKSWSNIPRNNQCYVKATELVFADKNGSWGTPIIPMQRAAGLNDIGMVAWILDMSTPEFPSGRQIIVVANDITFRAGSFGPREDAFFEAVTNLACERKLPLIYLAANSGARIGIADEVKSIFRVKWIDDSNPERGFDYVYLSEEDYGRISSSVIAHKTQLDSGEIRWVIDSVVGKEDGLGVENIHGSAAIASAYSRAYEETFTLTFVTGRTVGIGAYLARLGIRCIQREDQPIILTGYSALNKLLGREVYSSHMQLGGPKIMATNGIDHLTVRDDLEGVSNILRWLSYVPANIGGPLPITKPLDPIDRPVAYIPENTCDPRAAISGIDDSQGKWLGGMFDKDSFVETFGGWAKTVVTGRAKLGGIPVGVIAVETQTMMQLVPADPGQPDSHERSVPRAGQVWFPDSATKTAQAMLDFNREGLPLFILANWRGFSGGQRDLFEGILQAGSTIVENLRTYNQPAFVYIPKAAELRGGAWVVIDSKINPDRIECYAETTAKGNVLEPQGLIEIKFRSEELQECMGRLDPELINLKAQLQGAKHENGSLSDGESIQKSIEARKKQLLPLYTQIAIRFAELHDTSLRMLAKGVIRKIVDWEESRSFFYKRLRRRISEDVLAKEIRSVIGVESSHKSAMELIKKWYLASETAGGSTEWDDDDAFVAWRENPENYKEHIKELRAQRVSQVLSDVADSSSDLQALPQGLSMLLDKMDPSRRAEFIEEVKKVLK
# [4] = system: EPSPS; assay: phosphate release, EnzCheck phosphate assay, […] nm; type: biochemical, Lolium perenne; conditions: S population; partially purified leaf extract; pH 7.0; read-out: I50
Structure (SMILES),IC50 [1] [µM],IC50 [2] [µM],IC50 [3] [µM],IC50 [4] [µM]
CC(Oc1ccc(Oc2ccc(Cl)cc2Cl)cc1)C(=O)O (stereo not shown) [diclofop-acid],68.6,6.2,4.6,
O=C(O)CNCP(=O)(O)O [glyphosate],,,,7.8
